# Where two headings read alike, the source gives them in different places. *1 amine or outer side, *2 acyl side, *3 side chain or, on linkers, in order; H or OH if unused. Where a SMILES comes first, the peptide text is derived from it. Bridges are numbered along the chain shown (N, C = ends). [ ]: non-standard residue; d: D form. The star is where a group is joined. X198 = COC[C@H]1COCCN1c1ccc(-c2ccc(Cl)cc2C[C@@H](C(=O)[*:2])N(C)[*:1])cc1; X128 = CC(C)C(=O)N1C2C=C(c3ccc(F)cc3C[C@@H](C(=O)[*:2])N(C)[*:1])CC1COC2; X191 = CN([C@@H](Cc1cc(Cl)ccc1-c1ccc(N2CCOCC2)c(F)c1F)C(=O)[*:2])[*:1]; X171 = CC(=O)N1CC=C(c2ncc(Cl)cc2C[C@@H](C(=O)[*:2])N(C)[*:1])CC1; X87 = CN([C@@H](Cc1cc(F)ccc1-c1ccc(N2CCOCC2)cc1)C(=O)[*:2])[*:1]; X187 = CC(=O)N1CC=C(c2ccc(Cl)cc2C[C@@H](C(=O)[*:2])N(C)[*:1])C1; X170 = CN([C@@H](Cc1cc(Cl)ccc1-c1ccc2nonc2c1)C(=O)[*:2])[*:1]; NMe3Pal(2-OiBu,5-Cl) = CN[C@@H](Cc1cc(Cl)cnc1OCC(C)C)C(=O)O; NMehhhLys(Me) = CN([C@@H](CCCCCCCN(C)[*:3])C(=O)[*:2])[*:1]; NMe3Pal(2-OiPr,5-Cl) = CN[C@@H](Cc1cc(Cl)cnc1OC(C)C)C(=O)O; X174 = CN([C@@H](Cc1cc(Cl)cnc1-c1cnn(C)c1)C(=O)[*:2])[*:1]; NMe(hhhLys) = CN([C@@H](CCCCCCCN[*:3])C(=O)[*:2])[*:1]; Oxane2carbonyl(2R-CF3) = O=C([C@@]1(C(F)(F)F)CCCCO1)*; cBuCO(3,3-F2-1-CF3) = O=C(C1(C(F)(F)F)CC(F)(F)C1)*; Pro(trans-4-F) = O=C(O)[C@@H]1C[C@@H](F)CN1; Gly(cPr) = N[C@H](C(=O)O)C1CC1
# What was measured:
# CyclinE1/CDK2 = biological target: T1, CyclinE1/CDK2 (Homo sapiens, UniProt P24864); test: Fluorescence Polarization (FP) competitive binding assay, Cyclin E1/Cdk2;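 note: readings taken after two-hour equilibration at room temperature in HEPES buffer with NaCl, DTT, NP-40 and BSA, IC50 fitted from eight-concentration serial dilution series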
# T1 construct: purchased Eurofins, discovery 14-475
# CyclinA2/CDK2 = biological target: T2, CyclinA2/CDK2 (Homo sapiens, UniProt P20248); test: Fluorescence Polarization (FP) competitive binding assay, Cyclin A2/Cdk2;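 note: plates equilibrated two hours at room temperature before polarization reading, IC50 fitted from eight-concentration compound titration curves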
# T2 construct: purchased CRELUX Protein Services
# OVCAR3 cells = test: MTT proliferation assay, OVCAR3; format: cell-based; settings: 5 days compound exposure, 1:3 serial dilution starting at 10 μM;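 note: compound given as an 8- or 10-point series, one day after plating, with exposure covering roughly 3-4 cell doublings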
# NCI-H1048 cells = test: MTT proliferation assay, NCI-H1048; format: cell-based; settings: 5 days compound exposure, 1:3 serial dilution starting at 10 μM;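 note: Dose-response in 96-well plates over 8 or 10 concentration points, with exposure spanning 3-4 cell doublings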
# CyclinB1/CDK1 = biological target: T3, CyclinB1/CDK1 (Homo sapiens, UniProt P14635); test: Fluorescence Polarization (FP) competitive binding assay, Cyclin B1/Cdk1;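 note: fluorescence polarization read after equilibration at room temperature, with IC50 taken from serially diluted dose-response curves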
# T3 construct: purchased Eurofins, discovery 14-450
# [1] = 10 nM Cyclin E1/Cdk2, 2 nM FAM probe, average of 2-3 independent experiments, read-out: Cyclin E FP IC50
# [2] = 8 nM Cyclin A2/Cdk2, 2 nM FAM probe; average of 2-3 independent experiments; read-out: Cyclin A FP IC50
# [3] = 10 nM Cyclin B1/Cdk1, 2 nM FAM probe; average of 2-3 independent experiments; read-out: Cyclin B FP IC50
# [4] = read-out: Cyclin A FP IC50; 8 nM Cyclin A2/Cdk2, 2 nM FAM probe; average of 2-3 independent experiments
# [5] = read-out: Cyclin B FP IC50; 10 nM Cyclin B1/Cdk1, 2 nM FAM probe; average of 2-3 independent experiments
SMILES,IC50 (CyclinE1/CDK2; [1]),IC50 (CyclinA2/CDK2; [2]),GI50 (OVCAR3 cells),GI50 (NCI-H1048 cells),IC50 (CyclinB1/CDK1; [3]),IC50 (CyclinE1/CDK2),IC50 (CyclinA2/CDK2; [4]),IC50 (CyclinB1/CDK1; [5])
"CC(C)C[C@@H]1NC(=O)[C@@H](N(C)C(=O)[C@@H](NC(=O)[C@@H]2C[C@@H](F)CN2C(=O)C2(C(F)(F)F)CC(F)(F)C2)C2CC2)CCCCCCCNC(=O)[C@H](Cc2cc(Cl)cnc2OC(C)C)N(C)C1=O [Example 131] ({cBuCO(3,3-F2-1-CF3)}-[Pro(trans-4-F)][Gly(cPr)][NMe(hhhLys)]L[NMe3Pal(2-OiPr,5-Cl)]; lactam 3-C)",240 nM,30 nM,400 nM,290 nM,20 nM,,,
"CC(=O)N1CC=C(c2ncc(Cl)cc2C[C@H]2C(=O)NCCCCCCC[C@H](N(C)C(=O)[C@@H](NC(=O)[C@@H]3C[C@@H](F)CN3C(=O)C3(C(F)(F)F)CC(F)(F)C3)C3CC3)C(=O)N[C@@H](CC(C)C)C(=O)N2C)CC1 [Example 302] ({cBuCO(3,3-F2-1-CF3)}-[Pro(trans-4-F)][Gly(cPr)][NMe(hhhLys)]L[X171]; lactam 3-C)",3560 nM,50 nM,120 nM,140 nM,20 nM,,,
"COC[C@H]1COCCN1c1ccc(-c2ccc(Cl)cc2C[C@H]2C(=O)N(C)CCCCCCC[C@H](N(C)C(=O)[C@@H](NC(=O)[C@@H]3C[C@@H](F)CN3C(=O)C3(C(F)(F)F)CC(F)(F)C3)C3CC3)C(=O)N[C@@H](CC(C)C)C(=O)N2C)cc1 [Example 373] ({cBuCO(3,3-F2-1-CF3)}-[Pro(trans-4-F)][Gly(cPr)][NMehhhLys(Me)]L[X198]; lactam 3-C)",480 nM,20 nM,10 nM,10 nM,20 nM,,,
"CC(C)C[C@@H]1NC(=O)[C@@H](N(C)C(=O)[C@@H](NC(=O)[C@@H]2C[C@@H](F)CN2C(=O)C2(C(F)(F)F)CC(F)(F)C2)C2CC2)CCCCCCCNC(=O)[C@H](Cc2cc(F)ccc2-c2ccc(N3CCOCC3)cc2)N(C)C1=O [Example 334] ({cBuCO(3,3-F2-1-CF3)}-[Pro(trans-4-F)][Gly(cPr)][NMe(hhhLys)]L[X87]; lactam 3-C)",190 nM,20 nM,10 nM,10 nM,20 nM,,,
"CC(C)C[C@@H]1NC(=O)[C@@H](N(C)C(=O)[C@@H](NC(=O)[C@@H]2C[C@@H](F)CN2C(=O)C2(C(F)(F)F)CC(F)(F)C2)C2CC2)CCCCCCCN(C)C(=O)[C@H](Cc2cc(F)ccc2C2=CC3COCC(C2)N3C(=O)C(C)C)N(C)C1=O (stereo partly drawn) [Example 151] ({cBuCO(3,3-F2-1-CF3)}-[Pro(trans-4-F)][Gly(cPr)][NMehhhLys(Me)]L[X128]; lactam 3-C)",220 nM,20 nM,10 nM,10 nM,20 nM,,,
CC(C)C[C@@H]1NC(=O)[C@@H](N(C)C(=O)[C@@H](NC(=O)[C@@H]2C[C@@H](F)CN2C(=O)C2(C(F)(F)F)CC(F)(F)C2)C2CC2)CC=CCCCCN(C)C(=O)[C@H](Cc2cc(Cl)ccc2Oc2ncccn2)N(C)C1=O [Example 153],1000 nM,470 nM,140 nM,110 nM,20 nM,,,
"CC(=O)N1CC=C(c2ccc(Cl)cc2C[C@H]2C(=O)N(C)CCCCCCC[C@H](N(C)C(=O)[C@@H](NC(=O)[C@@H]3C[C@@H](F)CN3C(=O)C3(C(F)(F)F)CC(F)(F)C3)C3CC3)C(=O)N[C@@H](CC(C)C)C(=O)N2C)C1 [Example 308] ({cBuCO(3,3-F2-1-CF3)}-[Pro(trans-4-F)][Gly(cPr)][NMehhhLys(Me)]L[X187]; lactam 3-C)",840 nM,20 nM,10 nM,10 nM,20 nM,,,
"CC(C)C[C@@H]1NC(=O)[C@@H](N(C)C(=O)[C@@H](NC(=O)[C@@H]2C[C@@H](F)CN2C(=O)C2(C(F)(F)F)CC(F)(F)C2)C2CC2)CCCCCCCN(C)C(=O)[C@H](Cc2cc(Cl)cnc2-c2cnn(C)c2)N(C)C1=O [Example 246] ({cBuCO(3,3-F2-1-CF3)}-[Pro(trans-4-F)][Gly(cPr)][NMehhhLys(Me)]L[X174]; lactam 3-C)",,,10 nM,30 nM,,640 nM,20 nM,20 nM
"CC(C)C[C@@H]1NC(=O)[C@@H](N(C)C(=O)[C@@H](NC(=O)[C@@H]2C[C@@H](F)CN2C(=O)C2(C(F)(F)F)CC(F)(F)C2)C2CC2)CCCCCCCN(C)C(=O)[C@H](Cc2cc(Cl)ccc2-c2ccc3nonc3c2)N(C)C1=O [Example 170] ({cBuCO(3,3-F2-1-CF3)}-[Pro(trans-4-F)][Gly(cPr)][NMehhhLys(Me)]L[X170]; lactam 3-C)",2220 nM,50 nM,200 nM,130 nM,20 nM,,,
"CC(C)C[C@@H]1NC(=O)[C@@H](N(C)C(=O)[C@@H](NC(=O)[C@@H]2C[C@@H](F)CN2C(=O)C2(C(F)(F)F)CC(F)(F)C2)C2CC2)CC=CCCCCNC(=O)[C@H](Cc2cc(Cl)cnc2OC2CC2)N(C)C1=O (single isomer, unassigned) [Example 102-P2]",310 nM,120 nM,130 nM,80 nM,20 nM,,,
"CC(C)COc1ncc(Cl)cc1C[C@H]1C(=O)N(C)CCCCCCC[C@H](N(C)C(=O)[C@@H](NC(=O)[C@@H]2C[C@@H](F)CN2C(=O)[C@@]2(C(F)(F)F)CCCCO2)C2CC2)C(=O)N[C@@H](CC(C)C)C(=O)N1C [Example 229] ({Oxane2carbonyl(2R-CF3)}-[Pro(trans-4-F)][Gly(cPr)][NMehhhLys(Me)]L[NMe3Pal(2-OiBu,5-Cl)]; lactam 3-C)",,,20 nM,10 nM,,100 nM,20 nM,20 nM
"CC(C)C[C@@H]1NC(=O)[C@@H](N(C)C(=O)[C@@H](NC(=O)[C@@H]2C[C@@H](F)CN2C(=O)C2(C(F)(F)F)CC(F)(F)C2)C2CC2)CCCCCCCN(C)C(=O)[C@H](Cc2cc(Cl)ccc2-c2ccc(N3CCOCC3)c(F)c2F)N(C)C1=O [Example 386] ({cBuCO(3,3-F2-1-CF3)}-[Pro(trans-4-F)][Gly(cPr)][NMehhhLys(Me)]L[X191]; lactam 3-C)",900 nM,20 nM,20 nM,30 nM,20 nM,,,
CC(C)C[C@@H]1NC(=O)[C@@H](NC(=O)[C@@H](NC(=O)[C@@H]2C[C@@H](F)CN2C(=O)C2(C(F)(F)F)CC(F)(F)C2)C2CC2)CC=CCCCCNC(=O)[C@H](Cc2cc(Cl)ccc2Cl)N(C)C1=O [Example 4],100 nM,90 nM,60 nM,120 nM,20 nM,,,
"CC(=O)N1C2CCC1CC(c1ccc(F)cc1C[C@H]1C(=O)N(C)CCCCCCC[C@H](N(C)C(=O)[C@@H](NC(=O)[C@@H]3C[C@@H](F)CN3C(=O)C3(C(F)(F)F)CC(F)(F)C3)C3CC3)C(=O)N[C@@H](CC(C)C)C(=O)N1C)C2 (single isomer, unassigned) [Example 59-P1]",850 nM,120 nM,20 nM,20 nM,20 nM,,,
CC(C)C[C@@H]1NC(=O)[C@@H](N(C)C(=O)[C@@H](NC(=O)[C@@H]2C[C@@H](F)CN2C(=O)C2(C(F)(F)F)CC(F)(F)C2)C2CC2)CC=CCCCCNC(=O)[C@H](Cc2cc(Cl)ccc2-c2cnn(CCO)c2)N(C)C1=O [Example 28],740 nM,40 nM,170 nM,80 nM,20 nM,,,
